Reference: publication PMC12195740, “Discovery of Novel Imidazothiazole-Based Hydroxamic Acid Derivatives as Potent Indoleamine 2,3-Dioxygenase 1 and Histone Deacetylase 6 Dual Inhibitors” (Molecules, 2025)

How the values were obtained:
[1] = biological target: T1, rhIDO1 (Homo sapiens, UniProt P14902); experiment: IDO1 inhibition assay; assay type: biochemical; settings: means ± S.D. of three independent experiments
T1 construct: purchased
Procedure: Section S1. Biological assays […]
Section S 1.2 IDO1 inhibition assays
IDO1 inhibition assays were carried out according to the manufacturers’ procedures, as described previously. The standard assay mixture (100 μL) contained 50 mM of potassium phosphate buffer (pH = 6.5), 10 mM ascorbate, 10 μM methylene blue, 100 μg/mL catalase, 1 mM L-tryptophan and 10 μg/mL of rhIDO1. The plate was incubated at 37 °C in a dark environment, and reactions were terminated after 60 min by the addition of 50 μL of fluorogenic developer solution and further incubated at 45 °C in dark for 3 h. Then, the plate was allowed to cool to room temperature for at least 1 h. After centrifugation at 1500g for 5 min at 20 °C, the fluorescence […]
M1000 Pro, Tecan US, Morrisville, NC) in an end-point mode. […]

[2] = biological target: T2, HDAC6 human recombinant enzyme (Homo sapiens, UniProt Q9UBN7); experiment: HDAC6 enzyme inhibitory activity assay; assay type: biochemical; settings: read-out: HDAC6 Inhibition Rate at 1 μM
T2 sequence (Q9UBN7 1-1215): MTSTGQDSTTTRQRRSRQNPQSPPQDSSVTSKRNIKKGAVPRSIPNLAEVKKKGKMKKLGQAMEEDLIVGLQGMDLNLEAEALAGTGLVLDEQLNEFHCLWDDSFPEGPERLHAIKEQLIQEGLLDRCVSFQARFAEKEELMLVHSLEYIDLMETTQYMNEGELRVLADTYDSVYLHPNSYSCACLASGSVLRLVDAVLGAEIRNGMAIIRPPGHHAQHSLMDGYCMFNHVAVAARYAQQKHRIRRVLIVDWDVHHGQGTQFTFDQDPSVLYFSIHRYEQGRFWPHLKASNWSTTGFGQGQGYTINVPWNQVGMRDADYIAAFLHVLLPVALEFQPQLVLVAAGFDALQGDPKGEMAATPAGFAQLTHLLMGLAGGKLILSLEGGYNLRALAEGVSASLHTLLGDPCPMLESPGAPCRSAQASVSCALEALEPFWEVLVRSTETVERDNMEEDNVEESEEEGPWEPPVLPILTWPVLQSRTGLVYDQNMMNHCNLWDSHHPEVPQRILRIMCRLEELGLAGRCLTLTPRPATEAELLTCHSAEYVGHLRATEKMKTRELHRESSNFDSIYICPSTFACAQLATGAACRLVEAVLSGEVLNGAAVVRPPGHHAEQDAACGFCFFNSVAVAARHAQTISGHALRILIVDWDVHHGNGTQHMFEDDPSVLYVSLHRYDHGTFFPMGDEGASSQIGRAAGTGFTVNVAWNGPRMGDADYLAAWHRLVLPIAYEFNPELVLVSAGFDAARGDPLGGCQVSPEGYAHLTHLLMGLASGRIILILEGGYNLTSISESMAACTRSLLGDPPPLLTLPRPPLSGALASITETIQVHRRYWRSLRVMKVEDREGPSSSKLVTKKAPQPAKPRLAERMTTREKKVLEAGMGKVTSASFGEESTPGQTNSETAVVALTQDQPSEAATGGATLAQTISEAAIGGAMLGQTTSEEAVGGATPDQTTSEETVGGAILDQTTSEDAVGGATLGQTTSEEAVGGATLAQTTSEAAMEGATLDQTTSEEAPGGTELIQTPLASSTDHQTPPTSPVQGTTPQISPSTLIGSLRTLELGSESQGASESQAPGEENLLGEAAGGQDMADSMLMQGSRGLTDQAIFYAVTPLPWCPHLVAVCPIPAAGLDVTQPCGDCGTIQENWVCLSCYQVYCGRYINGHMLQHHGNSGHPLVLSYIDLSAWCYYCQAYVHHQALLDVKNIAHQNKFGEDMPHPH
Procedure: Section S1. Biological assays
Section S 1.1. HDAC6 enzyme inhibitory activity assay
Preparation of Master Mix. Trichostatin A in DMSO, Fluorogenic HDAC substrate 3, and HDAC6 human recombinant enzyme were diluted to 20 μM, 200 μM, and 7 ng/uL, respectively, using HDAC Assay Buffer.BSA was dissolved in 1 mL of distilled water to make a BSA solution at a concentration of 1 mg/mL. A certain amount of Fluorogenic HDAC substrate 3, BSA and HDAC Assay Buffer were mixed well to make a master mix, and 40 μL of the master mix was added to each well of a 96-well plate. In the drug administration group, 5 μL of Trichostatin A in DMSO and HDAC6 human recombinant enzyme were added to each well. 5 μL of HDAC Assay Buffer and HDAC6 human recombinant enzyme were added to each well of the blank group, and incubated for 30 min at 37 °C. Finally, 50 μL of undiluted HDAC substrate 3, BSA and HDAC Assay Buffer were added to each well. 50 μL of 2x HDAC Developer was added to each well and incubated at room temperature for 15 min. The samples were read in an enzyme marker with an excitation wavelength in the range of 350-380 nm and an emission light in the range of 440-460 nm.
The values of fluorescence intensities were read and the inhibition rate and IC50 were calculated. […]

[3] = General toxicity in CT26 tumor-bearing BALB/c mice (body weight, H&E of organs); assay type: in vivo; settings: 150 mg/kg ip every 3 days for 21 days, versus vehicle group
Procedure: After that, fixed cells were washed with PBS. Then, cells were isolated by centrifugation and stained with propidium iodide (KeyGEN BioTECH, China) for 30 min. The samples were measured using flow cytometry and analyzed by Flowjo software.
Section S 1.6 Western blot assay […]
earlier were obtained by lysing the cells in ice-cold RIPA buffer with protease and phosphatase inhibitor and stored at -20°C for future use. The protein concentrations were quantified by the Bradford method (Bio-Rad) using a Multimode Varioscan instrument (Thermo Fischer Scientific). […]
and transferred to a polyvinylidene difluoride (PVDF) membrane (Amersham Biosciences). After the membrane was blocked at room temperature for 2 h in blocking solution, primary antibody was added and incubated at 4°C overnight. Ac-α-tubulin, Ac-histone H3 and GAPDH antibodies were purchased from Imgenex, USA. After three TBST washes, the membrane was incubated with corresponding horseradish peroxidase-labeled secondary antibody (1:2,000) (Santa Cruz) at room temperature for 1 h. Membranes were washed with TBST three times for 15 min and the protein bands were detected with chemiluminescence reagent (Thermo Fischer Scientific). The X-ray films were developed using developer and fixed with fixer solution.
Section S 1.7 In vivo antitumor efficacy […]
line CT-26 in BALB/c mice as described previously. Five-week-old male BALB/c mice were purchased from the Shanghai Ling Chang biotechnology company (China), and tumors were induced through subcutaneous injection of 1 × 10^7 cells in 100 µL of sterile PBS into the dorsal region. The animals were divided into four groups, starting on the second day. When the tumors reached a volume of 50−100 mm3 in all mice, the first group was administered intraperitoneally with an equivalent volume of 5% dextrose as the vehicle control. The second group was treated with […]
treated with complex 10e at doses of 150 mg/kg body weight once every 3 days for 3 weeks, respectively. All compounds were dissolved in vehicle. Tumor volumes and body weights were […]

[4] = system: SW480 cells; experiment: Cell viability (MTT) assay, SW480; settings: Homo sapiens, SW480, 48 h, read-out: Antiproliferative IC50, SW480
Procedure: Section S 1.3 Cell viability assays
(§1) Cell Bank at the Chinese Academy of Sciences.
(§2) DMEM and FBS were obtained from Gibco-Thermo (BRL Co. Ltd., USA).
(§3) another 48 h. The cells were stained with 10 μl of MTT at incubator for approximately 4 h. The medium was discarded and replaced by 100 mL DMSO. The O.D. value was read at 570/630 nm with a spectrophotometer.

[5] = system: MCF-7 cells; experiment: Cell viability (MTT) assay, MCF-7; settings: Homo sapiens, MCF7, 48 h, read-out: Antiproliferative IC50, MCF-7
Procedure: Section S 1.3 Cell viability assays
as §1, §2, §3

[6] = system: HCT-116 cells; experiment: Cell viability (MTT) assay, HCT-116; settings: Homo sapiens, HCT-116, 48 h, read-out: Antiproliferative IC50, HCT-116
Procedure: Section S 1.3 Cell viability assays
as §1, §2, §3

[7] = system: MDA-MB-231 cells; experiment: Cell viability (MTT) assay, MDA-MB-231; settings: Homo sapiens, MDA-MB-231, 48 h, read-out: Antiproliferative IC50, MDA-MB-231
Procedure: Section S 1.3 Cell viability assays
as §1, §2, §3

T1 sequence (P14902 whole entry): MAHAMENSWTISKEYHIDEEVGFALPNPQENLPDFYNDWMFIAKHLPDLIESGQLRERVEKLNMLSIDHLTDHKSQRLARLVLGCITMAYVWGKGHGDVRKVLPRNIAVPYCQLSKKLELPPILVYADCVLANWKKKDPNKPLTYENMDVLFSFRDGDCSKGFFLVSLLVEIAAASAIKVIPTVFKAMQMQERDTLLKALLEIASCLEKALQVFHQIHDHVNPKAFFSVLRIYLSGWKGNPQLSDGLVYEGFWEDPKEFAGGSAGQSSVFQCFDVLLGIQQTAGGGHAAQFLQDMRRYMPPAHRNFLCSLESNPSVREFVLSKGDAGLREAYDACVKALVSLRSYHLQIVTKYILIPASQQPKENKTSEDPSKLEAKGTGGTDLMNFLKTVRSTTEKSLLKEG

| Compound | IC50 [1] | inhibition at 1 µM [2] | IC50 [4] | IC50 [5] | IC50 [6] | IC50 [7] | influence on body weight of the mice [3] |
| --- | --- | --- | --- | --- | --- | --- | --- |
| Cc1ccc(-c2csc3ncc(C(=O)Nc4ccc(NCCCC(=O)NO)cc4)n23)cc1 [Compound 10h, N-{4-[(4-(hydroxyamino)-4-oxobutyl)amino]phenyl}-3-(p-tolyl)imidazo[2,1-b]thiazole-5-carboxamide] | 1780 ± 470 nM | 33.7% |  |  |  |  |  |
| O=C(CCCCCCC(=O)Nc1ccccc1)NO [SAHA, reference compound] |  | 91.7% |  |  |  |  | no obvious influence |
| Cc1ccc(-c2csc3ncc(C(=O)Nc4ccc(NCC(=O)NO)cc4)n23)cc1 [Compound 10f, N-{4-[(2-(hydroxyamino)-2-oxoethyl)amino]phenyl}-3-(p-tolyl)imidazo[2,1-b]thiazole-5-carboxamide] | 6160 ± 830 nM | 28.8% |  |  |  |  |  |
| O=C(CCNc1ccc(NC(=O)c2cnc3scc(-c4ccc(Br)cc4)n23)cc1)NO [Compound 10a, 3-(4-Bromophenyl)-N-{4-[(3-(hydroxyamino)-3-oxopropyl)amino]phenyl}imidazo[2,1-b]thiazole-5-carboxamide] | 1870 ± 60 nM | 22.4% |  |  |  |  |  |
| Cc1ccc(-c2csc3ncc(C(=O)Nc4ccc(NCCC(=O)NO)cc4)n23)cc1 [Compound 10g, N-{4-[(3-(hydroxyamino)-3-oxopropyl)amino]phenyl}-3-(p-tolyl)imidazo[2,1-b]thiazole-5-carboxamide] | 2070 ± 290 nM | 31.2% |  |  |  |  |  |
| NS(=O)(=O)NCCNc1nonc1C(=NO)Nc1ccc(F)c(Br)c1 [Epacadostat, reference compound] |  |  | > 80000 nM | > 80000 nM | > 80000 nM | > 80000 nM |  |

Further compounds by falling IC50 [1], results first:

| IC50 [1] | inhibition at 1 µM [2] | IC50 [4] | IC50 [5] | IC50 [6] | IC50 [7] | Compound | influence on body weight of the mice [3] |
| --- | --- | --- | --- | --- | --- | --- | --- |
| 1060 ± 20 nM | 25.2% |  |  |  |  | O=C(CCCNc1ccc(NC(=O)c2cnc3scc(-c4ccc(Br)cc4)n23)cc1)NO [Compound 10b, 3-(4-Bromophenyl)-N-{4-[(4-(hydroxyamino)-4-oxobutyl)amino)phenyl}imidazo[2,1-b]thiazole-5-carboxamide] |  |
| 960 ± 130 nM | 48% |  |  |  |  | Cc1ccc(-c2csc3ncc(C(=O)NCc4ccc(C(=O)NO)cc4)n23)cc1 [Compound 7b, N-[4-(hydroxycarbamoyl)benzyl]-3-(p-tolyl)imidazo[2,1-b]thiazole-5-carboxamide] |  |
| 590 ± 110 nM | 35.5% |  |  |  |  | Cc1ccc(-c2csc3ncc(C(=O)Nc4ccc(NCCCCC(=O)NO)cc4)n23)cc1 [Compound 10i, N-{4-[(5-(hydroxyamino)-5-oxopentyl)amino]phenyl}-3-(p-tolyl)imidazo[2,1-b]thiazole-5-carboxamide] |  |
| 380 ± 50 nM | 40.2% | > 80000 nM | > 80000 nM | > 80000 nM | > 80000 nM | Cc1ccc(-c2csc3ncc(C(=O)Nc4ccc(NCCCCCC(=O)NO)cc4)n23)cc1 [Compound 10j, N-{4-[(6-(hydroxyamino)-6-oxohexyl)amino]phenyl}-3-(p-tolyl)imidazo[2,1-b]thiazole-5-carboxamide] |  |
| 340 ± 90 nM | 19.4% |  |  |  |  | O=C(CCCCNc1ccc(NC(=O)c2cnc3scc(-c4ccc(Br)cc4)n23)cc1)NO [Compound 10c, 3-(4-Bromophenyl)-N-{4-[(5-(hydroxyamino)-5-oxopentyl)amino)phenyl}imidazo[2,1-b]thiazole-5-carboxamide] |  |
| 120 ± 10 nM | 46.2% | > 80000 nM | 52900 ± 6950 nM | 24400 ± 4780 nM | > 80000 nM | O=C(CCCCCNc1ccc(NC(=O)c2cnc3scc(-c4ccc(Br)cc4)n23)cc1)NO [Compound 10d] |  |
